In US20250243210A1, “CRBN E3 LIGASE LIGAND COMPOUND, PROTEIN DEGRADER DEVELOPED BASED THEREON AND THEIR APPLICATIONS” (GLUETACS THERAPEUTICS (SHANGHAI) CO., LTD., priority 2021, published 2025) one finds IC50 data, which are given here for eleven molecules.

pIC50: −log10 of the molar value. Read-outs that look alike come from different tables or passages of the source. Some results are limits rather than exact numbers.

For one test, the system named is Hep3B2.1-7. As to the kind of experiment: CCK-8 tumor cell proliferation, Hep3B2.1-7. The following applies: Hep3B2.1-7, 96 h, read-out: IC50 for inhibiting the proliferation of tumor cells, Hep3B2.1-7. In kind it is cell-based, Human. As for the experimental part: (§1) Determination of half inhibitory concentration (IC50) of the compounds against tumor cells:
(§2) The tumor cells used herein were cultured in a cell culture medium listed in table 6 at 37° C. in an incubator with 5% CO2. Prior to experimentation, all cells used were correctly identified by STR profiling, and tested negative for mycoplasma through routine screenings.
(§3) IC50 values of the compounds of the present disclosure (including the compounds in Table 4 and compounds of examples 1-72) were measured using the Meilun Cell Counting Kit-S kit from Dalian Meilun Biotech Co., Ltd. Assay details are as follows: tumor cells were seeded in a 96-well plate at a density listed in Table 7. After 24 h, 100 μL of the inoculated cells were treated with 0.5 μL of the compounds of the present disclosure (including the compounds in Table 4 and compounds of examples 1-72) at 10 different successively decreasing concentrations (starting at the highest concentration of 10 μM; 5-fold serial dilutions). After the cells were treated with the compounds of the present disclosure for a period of time (the treatment times listed in Table 7), the cell viability detection reagent was added to the culture medium for cell viability assessment according to the instructions provided with the CCK-8 kit. […] The growth inhibition of the compounds of the present disclosure on cells was plotted by Prism Graphpad software, and the IC50 values of the compounds of the present disclosure were calculated therefrom.

Another test has as its system MGC80-3. As to the kind of experiment: CCK-8 tumor cell proliferation, MGC80-3. The format is cell-based, Human. The note with it: read-out: IC50 for inhibiting the proliferation of tumor cells, MGC80-3. As for the experimental part:
as §1, §2, §3

The subject of a further test is LNcap. As to the kind of experiment: CCK-8 tumor cell proliferation, LNcap. In kind it is cell-based, Human. The note with it: 96 h, read-out: IC50 for inhibiting the proliferation of tumor cells, LNcap. As for the experimental part:
as §1, §2, §3

The next test relates to DU-145. As to the kind of experiment: CCK-8 tumor cell proliferation, DU-145. In kind it is cell-based, Human. The note with it: DU-145, 96 h, read-out: IC50 for inhibiting the proliferation of tumor cells, DU-145. As for the experimental part:
as §1
(§4) The tumor cells used herein were cultured in a cell culture medium listed in table 6 at 37° C. in an incubator with 5% CO2.
(§5) After the cells were treated with the compounds of the present disclosure for a period of time (the treatment times listed in Table 7), the cell viability detection reagent was added to the culture medium for cell viability assessment according to the instructions provided with the CCK-8 kit. […] The growth inhibition of the compounds of the present disclosure on cells was plotted by Prism Graphpad software, and the IC50 values of the compounds of the present disclosure were calculated therefrom.

The next test relates to MM.1R. As to the kind of experiment: CCK-8 tumor cell proliferation, MM.1R. In kind it is cell-based. The note with it: 72 h, read-out: IC50 for inhibiting the proliferation of tumor cells, MM.1R. As for the experimental part:
as §1, §4, §5

In another test the test system is WSU-DLCL2. As to the kind of experiment: CCK-8 tumor cell proliferation, WSU-DLCL2. The format is cell-based, Human. The note with it: read-out: IC50 for inhibiting the proliferation of tumor cells, WSU-DLCL2. As for the experimental part:
as §1, §4, §5

Where [1] appears, read: Homo sapiens, MGC-803, MGC80-3, 96 h.
The mark [2] stands for this setting: Homo sapiens, WSUDLCL2, WSU-DLCL2, 96 h.

On to `CC1(C)[C@H](NC(=O)c2ccc(N3CCC(CN4C5CC4CN(c4cc6c(cc4F)C(=O)N(C4CCC(=O)NC4=O)C6=O)C5)CC3)nc2)C(C)(C)[C@H]1Oc1ccc(C#N)c(Cl)c1` (some centres unmarked) [GT-03404, N-((1r,3r)-3-(3-chloro-4-cyanophenoxy)-2,2,4,4-tetramethylcyclobutyl)-6-(4-((3-(2-(2,6-dioxopiperidin-3-yl)-6-fluoro-1,3-dioxoisoindolin-5-yl)-3,6-diazabicyclo[3.1.1]heptan-6-yl)methyl)piperidin-1-yl)nicotinamide], for which the values for the pIC50 in the test with Hep3B2.1-7 (Homo sapiens), with MGC80-3 (setting [1]) and with LNcap (Homo sapiens) were 6.30 to 7.00, 6.30 to 7.00 and 6.00 to 6.30, respectively.

As for `CC1(C)[C@H](NC(=O)c2ccc(N3CCC(CN4CC5CCC(C4)N5c4ccc5c(c4)C(=O)N(C4CCC(=O)NC4=O)C5=O)CC3)nc2)C(C)(C)[C@H]1Oc1ccc(C#N)c(Cl)c1` (some centres unmarked) [GT-03425, N-((1r,3r)-3-(3-chloro-4-cyanophenoxy)-2,2,4,4-tetramethylcyclobutyl)-6-(4-((8-(2-(2,6-dioxopiperidin-3-yl)-1,3-dioxoisoindolin-5-yl)-3,8-diazabicyclo[3.2.1]octan-3-yl)methyl)piperidin-1-yl)nicotinamide], the pIC50 in the test on Hep3B2.1-7 (Homo sapiens) was no less than 7.30; with DU-145 (Homo sapiens) it was 6.00 to 6.30; in the test with MGC80-3 (setting [1]), no less than 7.30; in the test with MM.1R, 6.30 to 7.00; with WSU-DLCL2 (setting [2]) it was 7.00 to 7.30; in the test with LNcap (Homo sapiens), 7.00 to 7.30.

On to `CC1(C)[C@H](NC(=O)c2ccc(N3CCC(CN4C5CCC4CN(c4ccc6c(c4)C(=O)N(C4CCC(=O)NC4=O)C6=O)C5)CC3)nc2)C(C)(C)[C@H]1Oc1ccc(C#N)c(Cl)c1` (some centres unmarked) [GT-03426, N-((1r,3r)-3-(3-chloro-4-cyanophenoxy)-2,2,4,4-tetramethylcyclobutyl)-6-(4-((3-(2-(2,6-dioxopiperidin-3-yl)-1,3-dioxoisoindolin-5-yl)-3,8-diazabicyclo[3.2.1]octan-8-yl)methyl)piperidin-1-yl)nicotinamide], for which the pIC50 is no less than 7.30 in the test on Hep3B2.1-7 (Homo sapiens), 7.00 to 7.30 in the test on MGC80-3 (setting [1]), 6.30 to 7.00 with MM.1R and 7.00 to 7.30 in the test on LNcap (Homo sapiens).

Turning to `CC1(C)[C@H](NC(=O)c2ccc(N3CCC(CN4CC5CC(C4)N5c4ccc5c(c4)C(=O)N(C4CCC(=O)NC4=O)C5=O)CC3)nc2)C(C)(C)[C@H]1Oc1ccc(C#N)c(Cl)c1` (some centres unmarked) [GT-03427, N-((1r,3r)-3-(3-chloro-4-cyanophenoxy)-2,2,4,4-tetramethylcyclobutyl)-6-(4-((6-(2-(2,6-dioxopiperidin-3-yl)-1,3-dioxoisoindolin-5-yl)-3,6-diazabicyclo[3.1.1]heptan-3-yl)methyl)piperidin-1-yl)nicotinamide], the pIC50 was 5.30 to 6.00 in the test with DU-145 (Homo sapiens), 6.30 to 7.00 with MGC80-3 (setting [1]), 6.30 to 7.00 in the test with WSU-DLCL2 (setting [2]) and 6.00 to 6.30 with LNcap (Homo sapiens).

For the molecule `N#Cc1ccc(OC2CCC(NC(=O)c3ccc(N4CC5CCC(C4)N5CC4CCN(c5cc6c(cc5F)C(=O)N(C5CCC(=O)NC5=O)C6=O)CC4)nn3)CC2)cc1Cl` (centres unmarked) [GT-03450, N-((1r,4r)-4-(3-chloro-4-cyanophenoxy)cyclohexyl)-6-(8-((1-(2-(2,6-dioxopiperidin-3-yl)-6-fluoro-1,3-dioxoisoindolin-5-yl)piperidin-4-yl)methyl)-3,8-diazabicyclo[3.2.1]octan-3-yl)pyridazine-3-carboxamide], the pIC50 with DU-145 is 5.30 to 6.00; with MGC80-3 (MGC80-3, 96 h), 6.30 to 7.00; with MM.1R, 6.30 to 7.00; in the test on WSU-DLCL2 (WSU-DLCL2, 96 h), 6.00 to 6.30; with LNcap it was 6.30 to 7.00.

In the case of `N#Cc1ccc(OC2CCC(NC(=O)c3ccc(N4C5CC4CN(CC4CCN(c6cc7c(cc6F)C(=O)N(C6CCC(=O)NC6=O)C7=O)CC4)C5)nn3)CC2)cc1Cl` (centres unmarked) [GT-03451, N-((1r,4r)-4-(3-chloro-4-cyanophenoxy)cyclohexyl)-6-(3-((1-(2-(2,6-dioxopiperidin-3-yl)-6-fluoro-1,3-dioxoisoindolin-5-yl)piperidin-4-yl)methyl)-3,6-diazabicyclo[3.1.1]heptan-6-yl)pyridazine-3-carboxamide], the pIC50 was 5.30 to 6.00 with DU-145; 6.00 to 6.30 in the test with MGC80-3 (MGC80-3, 96 h); 6.30 to 7.00 with MM.1R; 6.30 to 7.00 in the test with WSU-DLCL2 (WSU-DLCL2, 96 h); 6.30 to 7.00 with LNcap.

Consider `CC1(C)[C@H](NC(=O)c2ccc(N3CCC(CN4C5CC4CN(c4ccc6c(c4)C(=O)N(C4CCC(=O)NC4=O)C6=O)C5)CC3)nc2)C(C)(C)[C@H]1Oc1ccc(C#N)c(Cl)c1` (some centres unmarked) [GT-03471, N-((1r,3r)-3-(3-chloro-4-cyanophenoxy)-2,2,4,4-tetramethylcyclobutyl)-6-(4-((3-(2-(2,6-dioxopiperidin-3-yl)-1,3-dioxoisoindolin-5-yl)-3,6-diazabicyclo[3.1.1]heptan-6-yl)methyl)piperidin-1-yl)nicotinamide], for which the pIC50 in the test with Hep3B2.1-7 (Homo sapiens) was 6.30 to 7.00; in the test on MGC80-3 (setting [1]) it was 6.30 to 7.00; in the test on WSU-DLCL2 (setting [2]), 5.30 to 6.00; in the test on LNcap (Homo sapiens), 6.00 to 6.30.

With `CC1(C)[C@H](NC(=O)c2ccc(N3CCC(CN4C5CCC4CN(c4cc6c(cc4F)C(=O)N(C4CCC(=O)NC4=O)C6=O)C5)CC3)nc2)C(C)(C)[C@H]1Oc1ccc(C#N)c(Cl)c1` (some centres unmarked) [GT-03482, N-((1r,3r)-3-(3-chloro-4-cyanophenoxy)-2,2,4,4-tetramethylcyclobutyl)-6-(4-((3-(2-(2,6-dioxopiperidin-3-yl)-6-fluoro-1,3-dioxoisoindolin-5-yl)-3,8-diazabicyclo[3.2.1]octan-8-yl)methyl)piperidin-1-yl)nicotinamide], the pIC50 is 6.30 to 7.00 in the test on Hep3B2.1-7 (Homo sapiens); 6.30 to 7.00 with DU-145 (Homo sapiens); 7.00 to 7.30 with MGC80-3 (setting [1]); 6.30 to 7.00 in the test with MM.1R; 6.30 to 7.00 in the test on WSU-DLCL2 (setting [2]); 7.00 to 7.30 in the test with LNcap (Homo sapiens).

On to `N#Cc1ccc(OC2CCC(NC(=O)c3ccc(N4CCC(CN5C6CC5CN(c5cc7c(cc5F)C(=O)N(C5CCC(=O)NC5=O)C7=O)C6)CC4)nn3)CC2)cc1Cl` (centres unmarked) [GT-03487, N-((1r,4r)-4-(3-chloro-4-cyanophenoxy)cyclohexyl)-6-(4-((3-(2-(2,6-dioxopiperidin-3-yl)-6-fluoro-1,3-dioxoisoindolin-5-yl)-3,6-diazabicyclo[3.1.1]heptan-6-yl)methyl)piperidin-1-yl)pyridazine-3-carboxamide], for which the pIC50 was 5.30 to 6.00 in the test on DU-145; 6.30 to 7.00 in the test on MGC80-3 (MGC80-3, 96 h); 6.30 to 7.00 with MM.1R; 6.30 to 7.00 in the test with WSU-DLCL2 (WSU-DLCL2, 96 h); 6.30 to 7.00 with LNcap.

`N#Cc1ccc(OC2CCC(NC(=O)c3ccc(N4CCC(CN5C6CCC5CN(c5ccc7c(c5)C(=O)N(C5CCC(=O)NC5=O)C7=O)C6)CC4)nn3)CC2)cc1Cl` (centres unmarked) [GT-03489, N-((1r,4r)-4-(3-chloro-4-cyanophenoxy)cyclohexyl)-6-(4-((3-(2-(2,6-dioxopiperidin-3-yl)-1,3-dioxoisoindolin-5-yl)-3,8-diazabicyclo[3.2.1]octan-8-yl)methyl)piperidin-1-yl)pyridazine-3-carboxamide]: the pIC50 with Hep3B2.1-7 is 6.30 to 7.00; in the test with DU-145 it was 5.30 to 6.00; with MGC80-3 (MGC80-3, 96 h), 6.30 to 7.00; with MM.1R, 6.00 to 6.30; in the test with WSU-DLCL2 (WSU-DLCL2, 96 h), 6.30 to 7.00; with LNcap it was 6.30 to 7.00.

`N#Cc1ccc(OC2CCC(NC(=O)c3ccc(N4CCC(CN5C6CC5CN(c5ccc7c(c5)C(=O)N(C5CCC(=O)NC5=O)C7=O)C6)CC4)nn3)CC2)cc1Cl` (centres unmarked) [GT-03490, N-((1r,4r)-4-(3-chloro-4-cyanophenoxy)cyclohexyl)-6-(4-((3-(2-(2,6-dioxopiperidin-3-yl)-1,3-dioxoisoindolin-5-yl)-3,6-diazabicyclo[3.1.1]heptan-6-yl)methyl)piperidin-1-yl)pyridazine-3-carboxamide]: the pIC50 is 5.30 to 6.00 in the test on DU-145; 6.30 to 7.00 in the test with MGC80-3 (MGC80-3, 96 h); 6.30 to 7.00 in the test on MM.1R; 6.30 to 7.00 in the test on WSU-DLCL2 (WSU-DLCL2, 96 h); 6.30 to 7.00 with LNcap.
